Measured values reported in patent US20230181801A1, “MOLECULAR IODINE-INFUSED POLYMERS, ARTICLES, AND PRODUCTS, AND THEIR PREPARATION AND USE” (I2PURE CORP., priority 2021, published 2023).

Assays:
[1] = room temperature; cited from earlier work
[2] = Stability of molecular iodine in solvent at room temperature; assay type: physicochemical; conditions: in ethanol, 15 days at room temperature in the dark

## II [I2, molecular iodine]
[1]
  maximum solubility in water: 332 ppm
[2]
  loss of molecular iodine: over 15%
